According to patent publication US7041694B1, “Cyclooxygenase-2 inhibition” (Cornell Research Foundation, Inc., priority 1997, dated 2006):

Key:
[1] = test system: patient with alcoholic hepatitis; experiment: Treatment of a patient with alcoholic hepatitis (Example I); type: in vivo; details: 6 mg/kg oral, daily; at the end of three weeks
Method: A patient with alcoholic hepatitis is admitted to a hospital complaining of nausea and upper abdominal pain. Liver function test results are total bilirubin of 4.0 mg/dl, direct bilirubin of 3.1 mg/dl, ALT of 100 IU/L, AST of 120 IU/L and prothrombin time of 15.1 seconds.
At the end of three weeks, the nausea and upper abdominal pain have resolved. Each of the blood tests has improved.

[2] = test system: patient with autoimmune hepatitis; experiment: Treatment of a patient with autoimmune hepatitis (Example II); type: in vivo; details: 6 mg/kg oral for two months
Method: The patient is a person with new onset nausea, loss of appetite and right upper quadrant tenderness. They are noted to have elevated liver chemistries. Serologic workup is notable for positive antinuclear and antismooth muscle antibodies. They are considered to have autoimmune hepatitis. Liver biopsy is consistent with this diagnosis. […] The patient is subsequently maintained on an oral dose of 6 mg/kg of the same drug.

Row | SMILES | blood tests (liver function tests: total bilirubin, direct bilirubin, ALT, AST, prothrombin time) [1] | nausea and upper abdominal pain [1] | symptoms (nausea, loss of appetite, right upper quadrant tenderness) [2]
1 | NS(=O)(=O)c1ccc(-n2nc(C(F)(F)F)cc2-c2ccc(Cl)cc2)cc1 [4-[5-(4-Chlorophenyl)-3-(trifluoromethyl)-1H-pyrazol-1-yl]benzenesulfonamide] | improved | resolved | resolution of symptoms
2 | Cc1ccc(-c2cc(C(F)(F)F)nn2-c2ccc(S(N)(=O)=O)cc2)cc1 [4-[5-(4-Methylphenyl)-3-(trifluoromethyl)-1H-pyrazol-1-yl]benzenesulfonamide] | same result | – | –
